Consider four compounds from paper PMC11395333, “The Bifunctional Dimer Caffeine-Indan Attenuates α-Synuclein Misfolding, Neurodegeneration and Behavioral Deficits after Chronic Stimulation of Adenosine A1 Receptors” (International Journal of Molecular Sciences, 2024).

In series [1] the test system is α-Syn. Set-up: method as in PMID 35139916. The settings on record: co-administration with CPA; cited from earlier work.
The nature of series [2]: Micro-PET/CT dynamic imaging. The format is in vivo, CD-1 mice. How it is done: The acquisition of dynamic PET data (10 × 10, 8 × 15, 6 × 20, 6 × 30, 4 × 60, 1 × 100, 4 × 100, 6 × 150, 4 × 300) was started immediately after radiotracer injection, followed by a 1 min CT scan. PET/CT images were registered and reconstructed automatically by the GNEXT system. PET images were reconstructed using a 3D-ordered Subset Expectation Maximization algorithm with 24 subsets and 3 iterations. CT images were reconstructed using a Modified Feldkamp algorithm. All data were analyzed using Vivoquant software (IviCRO) (InVicro, Needham, MA, USA). CT images were used to define anatomical regions of interest (ROIs) through PET/CT image co-registration. The quantification of activity concentration in the brain was performed by drawing ROIs and the mean and maximum standard uptake values (SUVs) were determined using the formula: SUV = [(MBq/mL) × (animal wt. (g))/injected dose (MBq)].

A short description of series [3]: Ex vivo biodistribution in healthy CD-1 mice. The settings on record: for Biodistribution, blood / Biodistribution, bone / Biodistribution, brain / Biodistribution, heart / Biodistribution, kidney / Biodistribution, large intestine / Biodistribution, liver / Biodistribution, lung / Biodistribution, small intestine / Biodistribution, spleen: tail vein injection. On the procedure: (§1) The liver, pancreas, and brain were collected, washed with saline, placed in water/acetonitrile, and homogenized using the Fisherbrand™ 150 Handheld Homogenizer (Thermo Fisher Scientific, Waltham, MA, USA). The samples were centrifuged at 14,000 relative centrifugal force (rcf) for 5 min (AccuSpin Micro 17, Thermo Fisher Scientific, Waltham, MA, USA). The supernatants were collected and filtered using 0.22 μm organic Millipore-Sigma filters (Oakville, ON, Canada). The clarified filtrate was injected into the HPLC and radioanalytes separated by a reverse phase column (5 μm C18, 9.4 × 250 mm reverse phase column, PN-990967-202, flow rate 5.00 mL/min) using the same gradient elution as described in Table 1. The elution of radioactive metabolites was detected using the radiation detector as described above. […] The mice were euthanized (anesthesia followed by cervical dislocation followed by cardiac puncture and blood draw) at 5, 10, 20, 40, and 60 min p.i., and different organs were harvested (blood, liver, small intestine, kidney, spleen, lung, heart, large intestine, bone, and brain), washed and placed in pre-weighed tubes. The radioactivity in each organ/tissue was measured using a calibrated automatic gamma counter (2480 Perkin Elmer, Waltham MA, USA) and the tissue uptake was expressed as a percentage of injected dose (ID) per gram (% ID/g). All radioactivity measurements were corrected for decay. Data are shown as average mean± SEM, calculated using replication for each sample.

Series [4] is described as follows: In vivo metabolic stability, radio-HPLC of tissue extracts. Also on record: species or system CD-1 mice. The settings on record: liver and pancreas extracts, 40 min p.i. How it is done: as §1, with “The” for “The mice were euthanized (anesthesia followed by cervical dislocation followed by cardiac puncture and blood draw) at 5, 10, 20, 40, and 60 min p.i., and different organs were harvested (blood, liver, small intestine, kidney, spleen, lung, heart, large intestine, bone, and brain), washed and placed in pre-weighed tubes. The”

Details of series [5]: method as in PMID 34187286. Particulars: cited from earlier work.
The conditions of series [6]: extrapolated from unbound CLint in mouse liver microsomes, well-stirred model; cited from earlier work.

Turning to `NC1CCc2ccccc21` (stereo not drawn) [1-aminoindan], in series [1], the “CPA-induced α-Syn aggregation and neurodegeneration” value was “prevented the CPA-induced α-Syn aggregation and neurodegeneration”.

In the case of `CCCn1c(=O)c2[nH]c(C3CCCC3)nc2n(CCC)c1=O` [DPCPX], the “CPA-induced α-Syn aggregation and neurodegeneration” value in series [1] is “prevented the CPA-induced α-Syn aggregation and neurodegeneration”.

For `Cn1c(=O)c2c(nc(CCCCCCNC3CCc4ccccc43)n2CCC[18F])n(C)c1=O` (stereo not drawn) [^18F–C8–6–I], the “Standardized uptake value in the whole brain” value in series [2] (after 50 min) is 0.21 SUV. For the same compound, the “Maximum standardized uptake value in the whole brain” value in series [2] (dynamic PET, tail vein injection) is given as 0.47 SUV. Further, the “Defluorination in vivo (from bone uptake)” value in series [3] (mouse, in vivo) was “little defluorination occurred in vivo”. In addition, in series [3] (ratio of blood radioactivity), the blood5min/blood20min is given as 1.1 and the blood5min/blood60min was found to be 1.9. In addition, in series [3] (ratio of brain uptake), the brain5min/brain20min is 1.7 and the brain5min/brain60min was determined as 3.4. In series [3] (5 min p.i.), the “Biodistribution, blood” value amounted to 0.76 ± 0.040 %ID/g; the “Biodistribution, bone” value is 1.00 ± 0.18 %ID/g; the “Biodistribution, brain” value is on record as 0.17 ± 0.014 %ID/g; the “Biodistribution, heart” value is 2.34 ± 0.26 %ID/g. In series [3] (5 min p.i.), the “Biodistribution, kidney” value was 16.26 ± 1.82 %ID/g; the “Biodistribution, large intestine” value is 2.98 ± 0.94 %ID/g; the “Biodistribution, liver” value amounted to 5.12 ± 1.65 %ID/g; the “Biodistribution, lung” value worked out at 7.03 ± 1.24 %ID/g. Moreover, in series [3] (5 min p.i.), the “Biodistribution, small intestine” value worked out at 8.56 ± 2.02 %ID/g and the “Biodistribution, spleen” value turned out to be 6.54 ± 0.88 %ID/g. Further, in series [3] (10 min p.i.), the “Biodistribution, blood” value is 0.78 ± 0.14 %ID/g; the “Biodistribution, bone” value is 1.24 ± 0.44 %ID/g; the “Biodistribution, brain” value is 0.14 ± 0.027 %ID/g; the “Biodistribution, heart” value was 1.77 ± 0.17 %ID/g. Moreover, in series [3] (10 min p.i.), the “Biodistribution, kidney” value stood at 11.86 ± 1.74 %ID/g; the “Biodistribution, large intestine” value is reported as 3.06 ± 0.73 %ID/g; the “Biodistribution, liver” value is listed as 6.91 ± 2.02 %ID/g; the “Biodistribution, lung” value is given as 5.51 ± 0.44 %ID/g. In series [3] (10 min p.i.), the “Biodistribution, small intestine” value is reported as 11.18 ± 3.11 %ID/g and the “Biodistribution, spleen” value was 5.49 ± 1.05 %ID/g. In addition, in series [3] (20 min p.i.), the “Biodistribution, blood” value is recorded as 0.67 ± 0.19 %ID/g; the “Biodistribution, bone” value was 1.18 ± 0.005 %ID/g; the “Biodistribution, brain” value turned out to be 0.10 ± 0.013 %ID/g; the “Biodistribution, heart” value came out at 1.14 ± 0.040 %ID/g. In series [3] (20 min p.i.), the “Biodistribution, kidney” value is 11.02 ± 0.48 %ID/g; the “Biodistribution, large intestine” value is on record as 2.83 ± 0.068 %ID/g; the “Biodistribution, liver” value was found to be 6.64 ± 1.44 %ID/g; the “Biodistribution, lung” value stood at 5.52 ± 0.72 %ID/g. For the same compound, in series [3] (20 min p.i.), the “Biodistribution, small intestine” value stood at 13.02 ± 1.24 %ID/g and the “Biodistribution, spleen” value is 5.71 ± 0.69 %ID/g. Further, in series [3] (40 min p.i.), the “Biodistribution, blood” value was 0.48 ± 0.029 %ID/g; the “Biodistribution, bone” value is on record as 1.04 ± 0.27 %ID/g; the “Biodistribution, brain” value was found to be 0.10 ± 0.011 %ID/g; the “Biodistribution, heart” value is given as 1.01 ± 0.16 %ID/g. For the same compound, in series [3] (40 min p.i.), the “Biodistribution, kidney” value is 8.65 ± 1.21 %ID/g; the “Biodistribution, large intestine” value was 2.69 ± 0.26 %ID/g; the “Biodistribution, liver” value was 4.76 ± 0.54 %ID/g; the “Biodistribution, lung” value is 3.00 ± 1.40 %ID/g. For the same compound, in series [3] (40 min p.i.), the “Biodistribution, small intestine” value is listed as 9.35 ± 1.82 %ID/g and the “Biodistribution, spleen” value came to 5.80 ± 0.83 %ID/g. Besides, in series [3] (60 min p.i.), the “Biodistribution, blood” value was 0.39 ± 0.11 %ID/g; the “Biodistribution, bone” value is 1.20 ± 0.34 %ID/g; the “Biodistribution, brain” value was determined as 0.05 ± 0.005 %ID/g; the “Biodistribution, heart” value was determined as 0.49 ± 0.018 %ID/g. Also, in series [3] (60 min p.i.), the “Biodistribution, kidney” value is 4.27 ± 0.37 %ID/g; the “Biodistribution, large intestine” value came to 2.50 ± 0.93 %ID/g; the “Biodistribution, liver” value was determined as 5.74 ± 1.12 %ID/g; the “Biodistribution, lung” value came out at 1.42 ± 0.22 %ID/g. In series [3] (60 min p.i.), the “Biodistribution, small intestine” value was determined as 12.33 ± 0.81 %ID/g and the “Biodistribution, spleen” value is given as 3.79 ± 0.33 %ID/g. Also, the “Parent compound share of the radioactivity signal” value in series [4] is given as no less than 95%.

Regarding `Cn1c(=O)c2c(nc(CCCCCCNC3CCc4ccccc43)n2CCCF)n(C)c1=O` (stereo not drawn) [^19F–C8–6–I], the “Parent remaining in liver microsomes” value in series [5] (1 h incubation, human, mouse and rat liver microsomes) was “significant percentage of the parent ^19F–C8–6–I remained”. Besides, the “Defluorination in liver microsomes” value in series [5] (mouse, rat and human liver microsomes) is “No defluorination was observed”. Besides, the “Predicted in vivo clearance in mouse plasma, CLp” value in series [6] is on record as 36.0 mL/min/kg.
